For 23 molecules, IC50 and inhibition results are on record in patent publication US12162858B2, “Quinoline derivatives as inhibitors of AXL/MER RTK and CSF1R” (QURIENT CO., LTD., priority 2018, dated 2024).

Test [1] has as its target T1, CSF1R (Homo sapiens, UniProt P07333). Kind of test: Cellular CSF1R inhibition ELISA (p-CSF1R, M-CSF-induced) using THP-1 cells. In kind it is cell-based. Also noted: THP-1 cells act as a model for human monocytes; endogenous in cells; host or cells: THP-1. The text has this:
The normal proto-oncogene c-fms encodes the macrophage growth factor (M-CSF, also known as CSF1) receptor involved in growth, survival, and differentiation along the monocyte-macrophage lineage. THP-1 cells act as a model for human monocytes. It confirms that an increased phosphorylation of CSF1R (p-CSF1R) can be observed, when induced by CSF1R ligand, CSF1.
The THP-1 cells should be maintained from 5×10^5 to 1×10^6 cells/ml in the cell culture flask. After centrifugation, the supernatant is aspirated. The cell pellet is re-suspended with pre-warmed growth medium (RPMI1640, 10% FBS, 0.05 mM 2-Mercaptoethanol) and cells are separated by pipetting 6 times up and down with a 10 ml serological pipette. The cell suspension has to be diluted to a final concentration of 2×10^5 cells per 80 μl with pre-warmed growth medium. 80 μl of cell suspension is added to all wells of plates. Cell-plates are incubated at 37° C./5% CO2. Dissolve compound in 100% DMSO to make 10 mM stock solutions (Aliquots stored in the Nitrogen Cabinet). Dilute 10 mM compounds solutions for 2-fold in 100% DMSO to get 5 mM solutions (10 μl+10 μl DMSO), and then make a 3-fold serial dilution (10 μl+20 μl DMSO) for 10 doses. For reference compounds: Dilute 10 mM compounds solutions for 20-fold in 100% DMSO to get 0.5 mM solutions (2 μl+38 μl DMSO), and then make a 3-fold serial dilution (10 μl+20 μl DMSO) for 10 doses. Transfer 2 μl diluted compounds to 198 μl medium to get solution of 50 μM concentration at top point for compounds and 5 μM for reference compounds. Then transfer 20 μl cpd solution into assay plate (Duplicate wells). The plate is incubated at 37° C./5% CO2 for 24 h. The final concentration of DMSO in all wells is […]. Reconstitute human M-CSF at 50 μg/ml in sterile water. (Aliquots stored in −80° C.). 1:1000 dilute human M-CSF by fresh medium to 50 ng/ml. After 24 h compounds treatment, transfer 25 μl diluted human M-CSF (50 ng/ml) to cell plate according to the plate map. The final concentration of human M-CSF in all wells is 10 ng/ml.
The plates is incubated at 37° C./5% CO2 for 5 min. In the beginning the appropriate amount of lysis buffer complete (100 μL/well) is prepared and stored on ice. After 5 min human M-CSF stimulation, wash plates once with 300 μL ice cold PBS. Then 100 μl lysis buffer is added to each well. The plate is shacked for 40 min at 4° C. Plates can now be stored at −20° C. After equilibrate the micro-well strips at room temperature, break off the required number of micro-wells. Place the micro-wells in the strip holder. Unused micro-wells must be resealed and stored at 4° C. immediately. Add 90 μl of cell lysate to the appropriate well. Seal with tape and press firmly onto top of micro-wells. Incubate the plate for 2 h at 37° C. Gently remove the tape and wash wells 4 times with 1× Wash Buffer, 200 μl each time for each well. Add 100 μl of reconstituted Detection Antibody (green color) to each well. Seal with tape and incubate the plate at 37° C. for 1 h. Repeat wash procedure. Add 100 μl of reconstituted HRP-Linked secondary antibody to each well. Seal with tape and incubate the plate for 30 min at 37° C. Repeat wash procedure. Add 100 μl of TMB Substrate to each well. Seal with tape and incubate the plate for 10 min at 37° C. or 30 min at 25° C. Calculations and Formulas: The following calculations and formulas are used for data analysis using XL Fit software: The curve fitting was made using the Sigmoidal Dose-Response Model (Fit model, 205).
A general note: ELISA stands for enzyme-linked immunosorbent assay.

Test [2] deals with T1, CSF1R. Put plainly: KINOMEscan competition binding assay for CSF1R. Conditions: @ 0.1 uM. On the set-up: DNA tag for qPCR (not a peptide); host or cells: E. coli/T7 phage or HEK-293. The protocol:
KINOMEscan™ is based on a competition binding assay that quantitatively measures the ability of a compound to compete with an immobilized, active-site directed ligand. The assay is performed by combining three components: DNA-tagged kinase; immobilized ligand; and a test compound. The ability of the test compound to compete with the immobilized ligand is measured via quantitative PCR of the DNA tag.
E. coli were grown to log-phase and infected with T7 phage and incubated with shaking at 32° C. until lysis. The lysates were centrifuged and filtered to remove cell debris. The remaining kinases were produced in HEK-293 cells and subsequently tagged with DNA for qPCR detection. Streptavidin-coated magnetic beads were treated with biotinylated small molecule ligands for 30 minutes at room temperature to generate affinity resins for kinase assays. The liganded beads were blocked with excess biotin and washed with blocking buffer (SeaBlock (Pierce), 1% BSA, 0.05% Tween 20, 1 mM DTT) to remove unbound ligand and to reduce non-specific binding. Binding reactions were assembled by combining kinases, liganded affinity beads, and test compounds in 1× binding buffer (20% SeaBlock, 0.17×PBS, 0.05% Tween 20, 6 mM DTT). Test compounds were prepared as 111× stocks in 100% DMSO. Kds were determined using an 11-point 3-fold compound dilution series with three DMSO control points. All compounds for Kd measurements are distributed by acoustic transfer (non-contact dispensing) in 100% DMSO. The compounds were then diluted directly into the assays such that the final concentration of DMSO was 0.9%. In case of % inhibition, test compounds were prepared as 40× stocks in 100% DMSO and directly diluted into the assay. All reactions performed in polypropylene 384-well plate. Each was a final volume of 0.02 ml. The assay plates were incubated at room temperature with shaking for 1 hour and the affinity beads were washed with wash buffer (1×PBS, 0.05% Tween 20). The beads were then re-suspended in elution buffer (1×PBS, 0.05% Tween 20, 0.5 μM non-biotinylated affinity ligand) and incubated at room temperature with shaking for 30 minutes. The kinase concentration in the eluates was measured by qPCR.
The CSF1R kinase binding activity results are shown in tables 1 (Kd) and 2 (percent inhibition at a concentration of 0.1 uM of compound to be tested).
Binding constants (Kds) were calculated with a standard dose-response curve using the Hill equation: […]
The Hill Slope was set to −1.
Curves were fitted using a non-linear least square fit with the Levenberg-Marquardt algorithm.
Binding % inhibition were calculated with as below:
[formula] • negative control=DMSO (100% Ctrl) • positive control=control compound (0% Ctrl)

Where [3] appears, read: read-out: CSF1R kinase binding activity, Percent (%) inhibition.
[4] abbreviates: read-out: CSF1R kinase binding activity, Range.

Like-named read-outs stand apart in the source and are kept apart here.

T1 sequence (P07333 20-972): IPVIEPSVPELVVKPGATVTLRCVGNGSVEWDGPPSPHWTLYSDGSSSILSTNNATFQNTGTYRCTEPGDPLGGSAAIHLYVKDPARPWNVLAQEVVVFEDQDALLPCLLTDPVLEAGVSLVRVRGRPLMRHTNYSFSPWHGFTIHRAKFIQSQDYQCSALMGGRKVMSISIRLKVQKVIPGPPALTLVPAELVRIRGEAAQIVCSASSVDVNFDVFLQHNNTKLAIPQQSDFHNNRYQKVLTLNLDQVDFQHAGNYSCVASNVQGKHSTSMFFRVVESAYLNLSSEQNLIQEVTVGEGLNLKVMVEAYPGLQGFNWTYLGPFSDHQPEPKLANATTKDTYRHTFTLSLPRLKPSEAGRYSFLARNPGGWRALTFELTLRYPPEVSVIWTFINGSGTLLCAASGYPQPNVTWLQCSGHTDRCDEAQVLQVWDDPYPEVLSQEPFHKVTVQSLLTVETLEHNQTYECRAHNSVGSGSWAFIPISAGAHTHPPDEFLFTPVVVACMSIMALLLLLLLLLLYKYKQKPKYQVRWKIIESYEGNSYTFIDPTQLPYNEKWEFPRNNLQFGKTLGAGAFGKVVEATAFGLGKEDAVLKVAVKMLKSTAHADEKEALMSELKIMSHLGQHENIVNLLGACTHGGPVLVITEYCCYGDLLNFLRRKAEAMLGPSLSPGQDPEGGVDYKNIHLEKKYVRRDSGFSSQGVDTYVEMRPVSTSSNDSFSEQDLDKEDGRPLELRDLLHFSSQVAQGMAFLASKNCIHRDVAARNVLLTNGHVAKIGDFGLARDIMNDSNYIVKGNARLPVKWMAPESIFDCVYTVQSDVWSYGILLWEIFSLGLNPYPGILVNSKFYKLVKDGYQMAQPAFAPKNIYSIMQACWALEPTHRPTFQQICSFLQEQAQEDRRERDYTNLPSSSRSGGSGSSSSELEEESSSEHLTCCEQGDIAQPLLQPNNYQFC

The term IC50 denotes the midpoint of a concentration-inhibition curve. Low readings indicate inhibition by little substance, high ones a need for much substance. In the case of `COc1cc2nccc(Oc3ccc(NC(=O)c4nn(C5CCCC5)cc4OCC(F)(F)F)cn3)c2cc1OC` [Compound 131], the IC50 in test [1] was ≥ 1000 nM. In addition, the inhibition at 0.1 µM in test [2] (setting [3]) is 21%; in test [2] (setting [4]), < 50%.

As to `COc1cc2nccc(Oc3ccc(NC(=O)c4nn(C5CCNC5)cc4OCC(F)(F)F)cn3)c2cc1OC` (stereo not drawn) [Compound 132], the IC50 in test [1] is ≥ 1000 nM. The inhibition at 0.1 µM in test [2] (setting [3]) was 16%; in test [2] (setting [4]), < 50%.

Regarding `COc1cc2nccc(Oc3ccc(NC(=O)c4nn(C5CCN(C)C5)cc4OCC(F)(F)F)cn3)c2cc1OC` (stereo not drawn) [Compound 133], the IC50 in test [1] is ≥ 1000 nM. The inhibition at 0.1 µM in test [2] (setting [3]) is 9%; in test [2] (setting [4]), < 50%.

Turning to `COc1cc2nccc(Oc3ccc(NC(=O)c4nn(CC5COC5)cc4OCC(F)(F)F)cn3)c2cc1OC` [Compound 134], in test [1], the 50% inhibitory concentration (IC50) was ≥ 1000 nM. The inhibition at 0.1 µM in test [2] (setting [3]) is 18%; in test [2] (setting [4]), < 50%.

For `COc1cc2nccc(Oc3ccc(NC(=O)c4nn(CCN)cc4OCC(F)(F)F)cn3)c2cc1OC` [Compound 135], the IC50 in test [1] is ≥ 1000 nM. Moreover, the inhibition at 0.1 µM in test [2] (setting [3]) was 4%; in test [2] (setting [4]), < 50%.

Consider `COc1cc2nccc(Oc3ccc(NC(=O)c4nn(CC(C)O)cc4OCC(F)(F)F)cn3)c2cc1OC` (stereo not drawn) [Compound 136], for which, in test [1], the IC50 is ≥ 1000 nM. In addition, the values for the inhibition at 0.1 µM in test [2] (setting [3]) and in test [2] (setting [4]) were 23% and < 50%, respectively.

Take `CNCCn1cc(OCC(F)(F)F)c(C(=O)Nc2ccc(Oc3ccnc4cc(OC)c(OC)cc34)nc2)n1` [Compound 137]: the IC50 in test [1] is ≥ 1000 nM. Besides, the results for the inhibition at 0.1 µM in test [2] (setting [3]) and in test [2] (setting [4]) were 6% and < 50%, respectively.

As to `COc1cc2nccc(Oc3ccc(NC(=O)c4nn(C5CCOC5)cc4OCC(F)(F)F)cn3)c2cc1OC` (stereo not drawn) [Compound 138], the IC50 in test [1] is ≥ 1000 nM. In addition, the inhibition at 0.1 µM in test [2] (setting [3]) was 9%; in test [2] (setting [4]), < 50%.

Turning to `CCCn1cc(OCC(F)(F)F)c(C(=O)Nc2ccc(Oc3ccnc4cc(OC)c(OC)cc34)nc2)n1` [Compound 139], the IC50 in test [1] is ≥ 1000 nM. For the same molecule, the inhibition at 0.1 µM is 37% in test [2] (setting [3]) and < 50% in test [2] (setting [4]).

In the case of `CCCn1cc(OCCNC)c(C(=O)Nc2ccc(Oc3ccnc4cc(OC)c(OC)cc34)cn2)n1` [Compound 140], in test [1], the IC50 is ≥ 1000 nM. The inhibition at 0.1 µM in test [2] (setting [3]) is 38%; in test [2] (setting [4]), < 50%.

Consider `CNCCOc1cn(C2CC2)nc1C(=O)Nc1ccc(Oc2ccnc3cc(OC)c(OC)cc23)cn1` [Compound 141], for which, in test [1], the 50% inhibitory concentration (IC50) was ≥ 1000 nM. For the same molecule, the inhibition at 0.1 µM was 23% in test [2] (setting [3]) and < 50% in test [2] (setting [4]).

On to `COc1cc2nccc(Oc3ccc(NC(=O)c4nn(C5CC5)cc4NCCC(F)(F)F)nc3)c2cc1OC` [Compound 142], for which the IC50 in test [1] was < 500 nM. In addition, the inhibition at 0.1 µM was 92% in test [2] (setting [3]) and ≥ 80% in test [2] (setting [4]).

Consider `COc1cc2nccc(Oc3ccc(NC(=O)c4nn(C5CC5)cc4OCC4COC4)nc3)c2cc1OC` [Compound 143], for which the 50% inhibitory concentration (IC50) in test [1] was < 500 nM. Also, the inhibition at 0.1 µM was 95% in test [2] (setting [3]) and ≥ 80% in test [2] (setting [4]).

Take `COc1cc2nccc(Oc3ccc(NC(=O)c4nn(C5CC5)cc4OCC4CNC4)nc3)c2cc1OC` [Compound 144]: the IC50 in test [1] is ≥ 1000 nM. In addition, the inhibition at 0.1 µM in test [2] (setting [3]) is 73%; in test [2] (setting [4]) it was 50 to 80%.

Turning to `COc1cc2nccc(Oc3ccc(NC(=O)c4nn(C5CC5)cc4NCC(F)(F)F)nc3)c2cc1OC` [Compound 145], the IC50 in test [1] is < 500 nM. Further, the inhibition at 0.1 µM in test [2] (setting [3]) is 94%; in test [2] (setting [4]), ≥ 80%.

As for `COc1cc2nccc(Oc3ccc(NC(=O)c4nn(C5CC5)cc4NCCC(F)(F)F)nn3)c2cc1OC` [Compound 146], in test [1], the IC50 was ≥ 1000 nM. In addition, the inhibition at 0.1 µM is 43% in test [2] (setting [3]) and < 50% in test [2] (setting [4]).

`COc1cc2nccc(Oc3ccc(NC(=O)c4nn(C5CC5)cc4OC(C)C)nn3)c2cc1OC` [Compound 147] returned an IC50 in test [1] of 500 to 1000 nM. The inhibition at 0.1 µM in test [2] (setting [3]) is 85%; in test [2] (setting [4]), ≥ 80%.

Turning to `COc1cc2nccc(Oc3ccc(NC(=O)c4nn(C5CC5)cc4NCC(F)(F)F)nn3)c2cc1OC` [Compound 148], in test [1], the 50% inhibitory concentration (IC50) is ≥ 1000 nM. Besides, the inhibition at 0.1 µM in test [2] (setting [3]) is 60%; in test [2] (setting [4]) it was 50 to 80%.

`COc1cc2nccc(Oc3ccc(NC(=O)c4nn(C5CC5)cc4OCC4CCC4)nn3)c2cc1OC` [Compound 149]: in test [1], the IC50 was ≥ 1000 nM. Also, the results for the inhibition at 0.1 µM in test [2] (setting [3]) and in test [2] (setting [4]) were 76% and 50 to 80%, respectively.

Consider `COCCOc1cn(CC(C)O)nc1C(=O)Nc1ccc(Oc2ccnc3cc(OC)c(OC)cc23)cn1` (stereo not drawn) [Compound 150], for which the half-maximal inhibitory concentration (IC50) in test [1] was ≥ 1000 nM. In addition, the inhibition at 0.1 µM in test [2] (setting [3]) was 74%; in test [2] (setting [4]), 50 to 80%.

As to `COc1cc2nccc(Oc3ccc(NC(=O)c4nn(CC(C)O)cc4OC(C)C)nc3)c2cc1OC` (stereo not drawn) [Compound 151], the IC50 in test [1] is < 500 nM. In addition, the inhibition at 0.1 µM in test [2] (setting [3]) is 97%; in test [2] (setting [4]) it was ≥ 80%.

Turning to `COc1cc2nccc(Oc3ccc(NC(=O)c4nn(CC(C)O)cc4OCCF)nc3)c2cc1OC` (stereo not drawn) [Compound 152], the IC50 in test [1] is < 500 nM. The inhibition at 0.1 µM in test [2] (setting [3]) was 96%; in test [2] (setting [4]), ≥ 80%.

On to `COc1cc2nccc(Oc3ccc(NC(=O)c4nn(CCOC5CC5)cc4OCC(F)(F)F)nc3)c2cc1OC` [Compound 153], for which, in test [1], the IC50 is < 500 nM. In addition, the inhibition at 0.1 µM is 95% in test [2] (setting [3]) and ≥ 80% in test [2] (setting [4]).
